Measured values published in patent publication US20130259929A1, “USE OF A PHOSPHOPEPTIDE ABLE TO BLOCK HER3/P85 INTERACTION FOR THE TREATMENT OF HER2 HYPER-EXPRESSING TUMOURS” (priority 2010, published 2013).
Non-standard residues stand in square brackets, D forms with d. No end group written: not given here. pY = N[C@@H](Cc1ccc(OP(=O)(O)O)cc1)C(=O)O

Key:
MCF7/Luc cells = assay: In vivo growth of peptide-transfected MCF7/Luc cells inoculated s.c.; design: species or system SCID mice; details: s.c. inoculation of transfected MCF7 cells
Experimental: Xeno-grafts. In vivo tests have been carried out using 40 day old SCID female mice (Harlan Laboratories, Milan, IT). At day 0, animals have been totally anesthetized with intramuscular injection of 400 μg/animal (average weight 25 g) of Zoletil (Virbac) containing 0.12% Xylor (Xylazine), and transplanted subcutaneously (s.c.), in intrascapular mouse region with pellet of […] (1.7 mg/sustained release pellet over 60 days, Innovative Research of America, Sarasota, Fla.). On the next day, 5×10^6 proliferating and scr and 1257 peptide previously transfected, as above described, MCF7 or BT474 cells, have been re-suspended in 0.1 ml of Matrigel (BD Biosciences) and subcutaneously inoculated in each mouse. […] Tumour growth has been monitored two times weekly using calibration along two orthogonal axes: length (L) and […]. The tumour volume (V) has been calculated using the formula V=L*(W2)/2. All the procedures relating to animals and treatment thereof have been carried out according institutional guidelines.
Generation of mammary tumour luminescent cells. Mammary tumour MCF7 cell lines stably transfected using pGL4.51 (luc2/CMV/Neo) expression vector, produced by Promega (Me, IT), have been transfected using scr or 1257 phosphopeptide ([…]×5×10^4 cells/mouse) and after 30 h subcutaneously inoculated in SCID mice (5×10^6 cells/mouse) in 200 μl (1:1 Matrigel: cell suspension in serum free medium). Mice have been in vivo imaged 20′ after inoculation and once weekly over 11 weeks. The animals have been anesthetized, as above reported, and subjected to intraperitoneal injection with 200 μl of luciferin (Caliper, Mi, IT); 10′ after incubation photon emission has been analyzed at 3′ minute exposure using Xenogen Ivis Lumina 2 machine. Growth of these cells has been monitored as reported in xenografts section.
Then it has been verified whether 1257 phosphopeptide was effective also in vivo. To this purpose immunocompromised SCID mice have been used. In the presence of oestrogen tablets, 5×10^6 control cells transfected with scr peptide or transfected with 1257 peptide have been injected subcutaneously between mouse scapulae. In order to verify the viability of phosphopeptide transfected cells in animals we have generated a stable luciferase gene expressing MCF7 cell line (MCF7/Luc).

MAPK phosphorylation = assay: MAPK (ERK1/2) phosphorylation (Western blot) after peptide transfection; type: cell-based, human; details: MCF7, BT474 and MDA-MB-453 cells (FIG. 4A); Herceptin where combined
Experimental: (§1) Peptide transfection. In order to inhibit the p85 and ErbB3 interaction, MCF7, BT474 and MDA-MB-453 cell lines have been transfected using 80, 100, and 180 μg, respectively, of the following phosphopeptides:
Treatments and lmmunodecorations. […] Briefly the cells have been plated at 5×10^5 concentration in 60 mm plates. […] At the end of the treatment the cells have been lysed with RIPA buffer [150 mM NaCl, 1% NP-40, 0,5% sodium deoxycholate (DOC), 0.1% SDS, 50 mM TrisHCl (pH 8), 1 mM PMSF, 1 mM EGTA, 50 mM NaF, 50 mM Na3VO4 and protease inhibitors (Roche, Milano, IT)] in order to analyze the expression levels of phosphorylated and total ErbB-3, ErbB-2, ERK and HSP-70 proteins. In order to analyze the levels of Akt phosphorylation and expression, the cells have been lysed in NP-40 buffer [1% NP-40, 10% glycerol, 137 mM NaCl, 20 mM TrisHCl (pH 7.4), 50 mM NaF, 1 mM PMSF, 5 mM Na3VO4, protease inhibitors (Roche, Milano, IT)]. Cell lysates have been incubated on ice for 20 minutes and centrifuged at 14000 rpm for 20 minutes. RIPA buffer obtained cell extracts have been boiled for 5 minutes at 95° C., while NP40 buffer lysed samples have been boiled at 65° C. for 5 minutes. […] After thorough washing, nitrocellulose peroxidase activity has been detected by chemiluminescence (Lite-blot-Euroclone, Milano, IT)

[1] = test system: PI3K activity measured as Akt phosphorylation; assay: Akt phosphorylation (Western blot) after peptide transfection; type: cell-based, human
Experimental: as §1
Treatments and lmmunodecorations. […] Briefly the cells have been plated at 5×10^5 concentration in 60 mm plates. […] At the end of the treatment the cells have been lysed with RIPA buffer [150 mM NaCl, 1% NP-40, 0,5% sodium deoxycholate (DOC), 0.1% SDS, 50 mM TrisHCl (pH 8), 1 mM PMSF, 1 mM EGTA, 50 mM NaF, 50 mM Na3VO4 and protease inhibitors (Roche, Milano, IT)] in order to analyze the expression levels of phosphorylated and total ErbB-3, ErbB-2, ERK and HSP-70 proteins. In order to analyze the levels of Akt phosphorylation and expression, the cells have been lysed in NP-40 buffer [1% NP-40, 10% glycerol, 137 mM NaCl, 20 mM TrisHCl (pH 7.4), 50 mM NaF, 1 mM PMSF, 5 mM Na3VO4, protease inhibitors (Roche, Milano, IT)]. Cell lysates have been incubated on ice for 20 minutes and centrifuged at 14000 rpm for 20 minutes. RIPA buffer obtained cell extracts have been boiled for 5 minutes at 95° C., while NP40 buffer lysed samples have been boiled at 65° C. for 5 minutes. Samples have been subjected to SDS-PAGE and transferred on nitrocellulose filters (Bio-Rad, Milan, IT). Then the filters have been incubated with interest antibodies, washed and incubated with specific secondary horse radish peroxidase (HRP) conjugated antibodies. After thorough washing, nitrocellulose peroxidase activity has been detected by chemiluminescence (Lite-blot-Euroclone, Milano, IT)

[2] = molecular target: T1, HER3 binding to GST-N-SH2p85 fusion protein (Homo sapiens, UniProt P27986); assay: GST pull-down; details: lysates of BT474, MCF7 and MDA-MB-453 cells, in vitro (FIG. 2A, FIG. 3)
T1 construct: containing SH2 domains in N-terminal portion of p85 sub-unit
T1 sequence (P27986 333-428 limits assumed): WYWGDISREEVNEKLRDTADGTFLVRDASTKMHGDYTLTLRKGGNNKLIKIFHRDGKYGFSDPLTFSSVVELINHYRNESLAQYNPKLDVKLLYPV
Experimental: GST pull-down. MCF-7, BT474 and MDA-MB-453 cell lines have been washed 2 times with cold PBS and extracted with lysis buffer [(50 mM Tris HCl (pH 7.4), 250 mM NaCl, 0,1% Triton X-100, 5 mM EDTA, 50 mM NaF, 1 mM PMSF, 5 mM Na3VO4 and 50 mmol/L of protease inhibitors (Roche, Milano, IT)]. After 20 minute ice-cold incubation, the lysates have been clarified by centrifugation at 14000 rpm for 20 minutes. The cellular extracts (1 mg sample) have been incubated for 4 hours at 4° C. in the presence of GST bound gluthatione-agarose beads or GST-p85 fusion protein (kindly supplied by doctor S. Giordano), in the presence or absence of 1257 phosphopeptide or scr peptide used as control. Then the interaction complexes have been washed six times with lysis buffer and subsequently beads eluted using Laemli Buffer 2× [(140 mM SDS, 432 mM Glycerol, 1.6 mM Bromophenol blue, 120 mM Tris HCl (pH 6.8), 8% β-mercaptoethanol)]. The proteins have been separated using 8% SDS-PAGE and transferred on nitrocellulose filter. The filter has been then immunodecorated with anti ErbB3 antibody.
As in FIG. 2A is apparent that 1257 phosphopeptide effectively in vitro binds p85 sub-unit thus inhibiting HER3 receptor binding.

p85 = p85 (Homo sapiens, UniProt P27986); details: binding to p85; cited from earlier work
Sequence of p85 (P27986 whole entry): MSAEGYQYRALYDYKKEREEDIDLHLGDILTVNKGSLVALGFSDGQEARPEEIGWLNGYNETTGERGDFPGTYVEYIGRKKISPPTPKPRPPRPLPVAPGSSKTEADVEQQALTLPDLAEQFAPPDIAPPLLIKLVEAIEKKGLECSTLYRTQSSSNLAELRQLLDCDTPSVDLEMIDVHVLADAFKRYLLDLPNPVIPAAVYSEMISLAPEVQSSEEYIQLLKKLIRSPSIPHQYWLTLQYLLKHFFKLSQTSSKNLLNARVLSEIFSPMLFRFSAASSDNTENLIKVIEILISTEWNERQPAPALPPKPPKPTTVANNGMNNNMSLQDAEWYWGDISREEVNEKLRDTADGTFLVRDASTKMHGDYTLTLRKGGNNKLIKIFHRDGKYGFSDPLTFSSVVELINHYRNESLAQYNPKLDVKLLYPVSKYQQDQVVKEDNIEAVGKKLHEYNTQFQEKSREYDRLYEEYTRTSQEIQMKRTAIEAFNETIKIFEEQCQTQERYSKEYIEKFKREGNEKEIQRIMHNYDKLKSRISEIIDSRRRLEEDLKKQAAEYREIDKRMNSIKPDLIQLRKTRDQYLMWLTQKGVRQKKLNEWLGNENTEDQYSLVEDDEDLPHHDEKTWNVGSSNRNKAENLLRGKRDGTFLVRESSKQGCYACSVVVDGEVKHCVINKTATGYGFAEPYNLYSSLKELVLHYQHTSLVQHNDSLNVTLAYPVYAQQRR

Substance | time after inoculation at which tumours were calibratable (MCF7/Luc cells) | tumour take (MCF7/Luc cells; SCID mice) [%] | MAPK phosphorylation (MAPK phosphorylation) | phosphorylation of Akt ([1]; MCF7, BT474 and MDA-MB-453 cells (FIG. 4A), Herceptin where combined) | inhibition of HER3 and p85 SH2 domain binding [2] | association constant (Ka) (p85) | inhibition of PI3K activity measured as inhibition level of Akt phosphorylation ([1]; MCF7 cells, peptide transfection at different doses (FIG. 12)) | inhibition of Akt phosphorylation ([1]; MCF7 cells, 48 hr after Lipofectamine transfection (FIG. 3))
PYQMRpYNADTDGERTTEP (PYQMR[pY]NADTDGERTTEP) [scr phosphopeptide, scramble (scr), i.e. not specific, phosphopeptide used as control, reference compound] | three | 100 | does not result in any effect | does not result in any effect | the binding is as efficient as in the absence of peptide | – | – | –
PTAGTTPDEDpYEYMNRQR (PTAGTTPDED[pY]EYMNRQR; listed as Homo sapiens) [1241 phosphopeptide, second HER3-derived phosphopeptide used for preliminary experiments, reference compound] | – | – | – | – | – | 824 | not suitable to remarkably inhibit PI3K activity | –
not phosphorylated 1257 peptide: Not phosphorylated 1257 peptide used as further negative control (RDGGGPGGDYAAMGACPA; not fully specified) [reference compound] | – | – | – | – | does not inhibit p85 and ErbB-3 binding | – | – | unable to inhibit Akt phosphorylation
